The data set in a line: Human HepG2 cell viability assay in 384 well format. In kind it is toxicity, cell-based. The arrangement: dose 125 nL, time 70.5 hour; cytotoxicity at 70.5 h: concentration not given beside the values. Particulars: HepG2 cells, read-out: Inhibition.
For the compound `CC(C)CN(C)Cc1c[nH]nc1-c1ccc(F)cc1F`, the cytotoxicity at 70.5 h was -15%. `Cc1ccc(C(=O)N2CC[C@H](Oc3cccnc3C)[C@@H](O)CC2)s1`: the cytotoxicity at 70.5 h was found to be 4.2%.

Regarding `N#CC1(NC(=O)c2cc(Cl)c3c(c2)OCCCO3)CCC1`, the cytotoxicity at 70.5 h is -4.84%. The same measure for `COc1c(C)cnc(CN2CCOC(Cn3cncn3)C2)c1C` (stereo not drawn): -3.24%; for `CN(Cc1cccc(F)c1)C(=O)CN1CCOC(Cn2cncn2)C1` (stereo not drawn): -0.78%; for `CCc1cnc(CN2CCCC2c2noc(C3CC3)n2)o1` (stereo not drawn): -11.3%. For the compound `Cc1oncc1C(=O)N[C@@H]1CN(Cc2ccco2)C[C@@H]2CCCO[C@@H]21`, the cytotoxicity at 70.5 h was -3.33%. Take `Cn1ccnc1CN1CCCC(CO)(CCc2ccccc2)C1` (stereo not drawn): the cytotoxicity at 70.5 h is -8.1%. Take `CC(C)NC(=O)c1cc(-c2ccc(S(C)(=O)=O)cc2)nc2c1cnn2C`: the cytotoxicity at 70.5 h was -13.7%. Regarding `O=C1CCCc2nccc(-c3ccccc3)c21`, the cytotoxicity at 70.5 h was 23.5%. With `Cc1noc(CCNC(=O)NCc2ccc(N3CCCCC3)cc2)n1`, the cytotoxicity at 70.5 h was -5.09%. The value for `O=C1CC2(CCN(S(=O)(=O)c3cccs3)C2)CN1c1cccc(F)c1` (stereo not drawn) was -9.07%; that for `CC(C)c1nc2c(n1C)CCN(CC(=O)Nc1ccc(Cl)cn1)C2` was -14.9%.

Turning to `CCc1[nH]nc(NC(=O)c2cc[nH]n2)c1C`, the cytotoxicity at 70.5 h came to 6.09%. The same measure for `CCC(O)CN1CCN(C(=O)Cc2ccc(OC)cc2OC)CC1` (stereo not drawn): 0.587%; for `N#CCCCS(=O)(=O)N1CCCC1CC(=O)c1cccs1` (stereo not drawn): -6.62%; for `Cc1cc(NCCS(C)(=O)=O)n2nc(C)cc2n1`: 4.45%. Consider `O=C1[C@H]2CC[C@H](CN(S(=O)(=O)c3ccccc3)C2)N1Cc1cscn1`, for which the cytotoxicity at 70.5 h is 8.27%. On to `CCN1CCc2c(cccc2NC(=O)N(C)C2CCSC2)C1` (stereo not drawn), for which the cytotoxicity at 70.5 h was -10.8%. In the case of `CCCOc1ccc(C2SCC(=O)Nc3c2c(=O)[nH]n3C(C)C)cc1` (stereo not drawn), the cytotoxicity at 70.5 h is -18.7%.

In the case of `CCNC(=O)NCc1cnn(-c2ccc(F)cc2F)c1`, the cytotoxicity at 70.5 h was -10.2%.

Turning to `O=C1CCCN1CCC1CCN(C2CCC3(CCNCC3)CC2)CC1`, the cytotoxicity at 70.5 h was -6.34%.

For the compound `OC(COCc1ccc(Cl)cc1)CN1CC(n2cccn2)C1` (stereo not drawn), the cytotoxicity at 70.5 h is -2.28%. `Cc1ccc(CNc2cc3c(cc2Cl)NC(=O)CO3)cc1C`: the cytotoxicity at 70.5 h was -5.39%. For the compound `Cc1nc(C(=O)N2C[C@@H]3CN(S(C)(=O)=O)CCO[C@@H]3C2)cs1`, the cytotoxicity at 70.5 h was -1.34%. With `CN(C)CCNC(=O)c1ccc(OC2CCN(CC3CC3)CC2)c(Cl)c1`, the cytotoxicity at 70.5 h came out at 0.798%. Turning to `CCC(=O)N1CCC2(CC1)CN(C(C)=O)c1ccc(C)cc12`, the cytotoxicity at 70.5 h was -9.39%. Regarding `CC(NCc1cnc(N2CCOCC2)s1)c1ccc(Cl)s1` (stereo not drawn), the cytotoxicity at 70.5 h is -7.8%. Regarding `CC(C)C(=O)N1CC[C@H]2N(C)CC[C@@]2(C(=O)N2CCCC2)CC1`, the cytotoxicity at 70.5 h was -7.87%.

Consider `CC(C)OCCC(=O)NCC(O)c1c(Cl)cccc1Cl` (stereo not drawn), for which the cytotoxicity at 70.5 h was -3.94%.

With `CS(=O)(=O)CCSCc1cccc2cccnc12`, the cytotoxicity at 70.5 h was -4.91%. `OC(COCc1ccccc1F)CN1CCc2c(ncn2C2CC2)C1` (stereo not drawn): the cytotoxicity at 70.5 h is -2.37%. As for `COC(=O)CCNC(=O)c1nnn(-c2ccc(C)cc2)c1C1CC1`, the cytotoxicity at 70.5 h stood at 16.4%. The same measure for `CCOC(=O)C1CC2(CCCC2)N2CCC(=O)N12` (stereo not drawn): 0.137%; for `Cn1nnc2c(N3CC(C(=O)NCc4ccccc4F)C3)ncnc21`: -8.25%.

On to `Cc1cccnc1NC(=O)C1CCN(C(=O)C(C)C)CC1`, for which the cytotoxicity at 70.5 h was -19.2%.

As for `O=C(c1ccco1)N1CCCC2(CN(Cc3cccs3)CCO2)C1` (stereo not drawn), the cytotoxicity at 70.5 h was found to be 1.5%. The same measure for `CCCn1ncc(C(=O)NC2CCN(CC3CCCO3)CC2)c1C` (stereo not drawn): 25.6%; for `COc1ccc(OC)c(C(O)CNC(=O)Nc2ccc(F)cc2F)c1` (stereo not drawn): -6.18%; for `CCCN(C(=O)c1ccncc1)c1nc2c(s1)CCc1c-2cnn1C`: 18.2%. For the compound `COc1ccc(S(=O)(=O)NCC(C)(O)c2cccs2)cc1Cl` (stereo not drawn), the cytotoxicity at 70.5 h is -10.5%.

As to `CN(C)c1ncc(-c2ccncc2)c(CCNC(=O)C2CC2)n1`, the cytotoxicity at 70.5 h was -5.57%. In the case of `CC(C)[C@@H]1CN(Cc2ccccc2C#N)C[C@H]1N(C)C`, the cytotoxicity at 70.5 h was 31.1%.

Consider `COc1cccc(CCC(=O)Nc2c(C)nn(C)c2C)c1OC`, for which the cytotoxicity at 70.5 h was -10.8%. Take `COCCOCCNC(=O)c1cccc(Cn2nc(C)cc2C)c1`: the cytotoxicity at 70.5 h came to 34.2%.

Regarding `c1ccc(CN2CCOCC3(CCN(C4CCOCC4)C3)C2)cc1` (stereo not drawn), the cytotoxicity at 70.5 h is -2.29%. `Cc1ccc(Cl)cc1-n1nnnc1C1(N2CCCC2)CCCCC1`: the cytotoxicity at 70.5 h was -12.7%. As to `CC1(C)CN=C(N2CCN(CC3CCOC3)CC2)S1` (stereo not drawn), the cytotoxicity at 70.5 h was -12.3%. In the case of `Cc1cc(C2CCCN2C(=O)CN2C(=O)OC(C)(C)C2=O)on1` (stereo not drawn), the cytotoxicity at 70.5 h is -2.6%. The same measure for `Cc1ccccc1C1(CN)CCCCC1`: 10.6%; for `Cc1ccc2c(C)c(C(=O)NCc3csc(N)n3)oc2c1`: -13%. The same measure for `CCn1cc(S(=O)(=O)NC2(CN3CCOCC3)CCCCC2)c(C)n1`: -0.203%. The value for `CCNC(=O)c1ccc(CNCc2c(C)nn(C)c2N(C)C)cc1` was 24.8%; that for `Cc1noc(C)c1CN1CC[C@H]2OCC[C@@H](C(=O)N3CCCO3)[C@@H]2C1` was -14.6%.

Take `COc1cccc(CN(C)C(=O)CCC(=O)c2ccc(Cl)cc2)c1OC`: the cytotoxicity at 70.5 h is -10.4%.

For `CC(C)CCn1nc(CNc2ccc(Br)cc2)nc1O`, the cytotoxicity at 70.5 h is -17.8%. As to `COC(=O)CC(c1cccnc1)c1oc(C)cc(=O)c1O` (stereo not drawn), the cytotoxicity at 70.5 h was -16.7%. The same measure for `COc1ccnc(N2C[C@@H]3CC[C@H](C2)N(CC2CC2)C3)n1`: 4.47%; for `CC(C)N1CCC2(C=C(C(=O)NC3CC3)c3ccccc32)CC1`: -1.67%.

Regarding `CC(=O)c1cccc(NC(=O)Cn2cc(I)cn2)c1`, the cytotoxicity at 70.5 h was -9.34%. The value for `CCN(CC)CCNc1c(-c2ccccc2)c(=O)c1=O` was -0.107%. On to `Cc1ccc(NS(=O)(=O)CC2=NC(=O)n3cccc3C2=O)cc1`, for which the cytotoxicity at 70.5 h is -36.1%.

Take `COc1cc2c(cc1OC)S(=O)(=O)N(Cc1cc(C)on1)C2=O`: the cytotoxicity at 70.5 h is -4.33%. For `Cc1ccc(CN(C)C(=O)CN2CCCC2Cn2cccn2)o1` (stereo not drawn), the cytotoxicity at 70.5 h is -9.22%. The same measure for `Cc1cn2c(=O)c(-c3ccnc(N[C@@H]4CCOC4)n3)cnc2s1`: -3.69%. Consider `Cc1nc(NC(=O)CCOCC(F)(F)F)ccc1Br`, for which the cytotoxicity at 70.5 h came out at 2.27%. As to `O=C(CC1CCCC1)NCCn1nc2ccccn2c1=O`, the cytotoxicity at 70.5 h is -2.13%. Turning to `CCS(=O)(=O)N1CCC2(CCCN(c3ncc(F)cn3)C2)C1` (stereo not drawn), the cytotoxicity at 70.5 h was -6.13%. Consider `Cc1ccc(OC2(C(=O)O)CCN(C(=O)CCc3ccco3)CC2)cc1`, for which the cytotoxicity at 70.5 h was -3.25%. The same measure for `COc1cc(N2CCC3(CC2)CC(N2CCN(C)CC2)CO3)ncn1` (stereo not drawn): -20.9%. For `CCc1nc(CN(C)C2CCN(CCn3cccn3)C2)no1` (stereo not drawn), the cytotoxicity at 70.5 h is -15.3%. On to `CCn1nc(C)cc1C(=O)N1CCCN(CCCc2ccccc2)CC1`, for which the cytotoxicity at 70.5 h amounted to 1.03%. Consider `CN(C)S(=O)(=O)c1ccc(CNC(=O)C2CC(=O)N(C(C)(C)C)C2)cc1` (stereo not drawn), for which the cytotoxicity at 70.5 h is -1.42%. The same measure for `Cn1cnc2c1C(COCC1CCOCC1)CN(C1CCOCC1)C2` (stereo not drawn): -25.6%; for `Cc1nnc2n1CCN(CCS(=O)(=O)c1ccc(Cl)cc1)C2`: 2.97%. The value for `CNC(=O)[C@H]1C[C@H]2OCC[C@H]2N(Cc2ccc(C)o2)C1` was 3.85%; that for `Cc1nc(-c2nnc[nH]2)sc1C(=O)N1CCCC1c1cccs1` (stereo not drawn) was -6.5%. Take `CC(=O)N1C[C@H](NS(=O)(=O)N2CCOCC2)[C@@H](c2ccc(C)o2)C1`: the cytotoxicity at 70.5 h was -7.85%.

Turning to `CC(C)S(=O)(=O)N1CCC(c2[nH]ncc2S(C)(=O)=O)C1` (stereo not drawn), the cytotoxicity at 70.5 h was -2.31%. Consider `Cc1ccc(C(=O)NC2CCCN(S(C)(=O)=O)C2)c(=O)[nH]1` (stereo not drawn), for which the cytotoxicity at 70.5 h was -2.62%. For the compound `Cc1n[nH]c(C2CN(C(=O)c3cc(C)sc3C)CCO2)n1` (stereo not drawn), the cytotoxicity at 70.5 h was -6.3%. The value for `CCNS(=O)(=O)c1cccc(CSC)c1` was 5.32%; that for `O=C(COCC1CC1)N1CCSCC1` was 2.26%. For the compound `CN1CCN(S(=O)(=O)c2cccc(S(=O)(=O)C3CCS(=O)(=O)C3)c2)CC1` (stereo not drawn), the cytotoxicity at 70.5 h is -11.1%. In the case of `CN(C)S(=O)(=O)N1CC[C@]2(O)CCN(CCCc3cccnc3)C[C@@H]2C1`, the cytotoxicity at 70.5 h was 1.31%. Consider `COCCOc1ccc(NC(=O)N(CC2CCOC2)C2CC2)cn1` (stereo not drawn), for which the cytotoxicity at 70.5 h was -2.98%. On to `Cc1nc(-c2ccco2)ccc1C(=O)N1CCCC1Cn1cccn1` (stereo not drawn), for which the cytotoxicity at 70.5 h was found to be 7.82%.

Turning to `Cc1cccc(C(=O)N2C[C@@H]3CCN(C(C)C)C[C@@H]3C2)c1`, the cytotoxicity at 70.5 h worked out at 19%. The same measure for `Cc1sc(C(=O)O)cc1S(=O)(=O)Nc1c(F)cccc1-n1cccn1`: 18.5%; for `O=C(c1ccc(F)c(F)c1)N1CCC[C@]2(C[C@@H](OCC3CC3)CO2)C1`: -12.6%. Regarding `Cn1ccc(CN2CCCC23CCNCC3)n1`, the cytotoxicity at 70.5 h was -5.64%. Take `COc1cccc(CNCc2cccnc2)c1`: the cytotoxicity at 70.5 h was determined as 9.83%. In the case of `CCc1ccc(C(=O)NCc2ccnc(N3CCN(C)CC3)c2)o1`, the cytotoxicity at 70.5 h was -7.44%.

Take `COc1ccc(CN2C[C@@H]3OCC(=O)N(CC(N)=O)[C@@H]3C2)cc1`: the cytotoxicity at 70.5 h is 2.86%.

Regarding `CC(C)c1noc(CCC(=O)N2CCN(Cc3ccncc3)CC2)n1`, the cytotoxicity at 70.5 h was -7.35%.

For the compound `COCCN(C(=O)c1cnccn1)c1nc2c(s1)CCc1c-2cnn1C`, the cytotoxicity at 70.5 h is 7%. In the case of `CCn1cc(SCC(=O)N2CCCC(O)(CO)C2)c2ccccc21` (stereo not drawn), the cytotoxicity at 70.5 h was -8.91%.

Regarding `COc1ncc(CN2CCC3(CCNC(=O)CC3)CC2)cn1`, the cytotoxicity at 70.5 h was determined as 4.98%.

(Values after ChEMBL document CHEMBL3507680, “University of Dundee, Gates Library screen for HepG2 cell viability”.)
